Source: patent US6872562B2, “Herbicide resistant dinitrogen fixing bacteria and method of use” (priority 2001, dated 2005)

Legend:
[1] = tested on: cultivar TV5866RR; test: Growth cabinet: nitrogenase activity (relative ARA) under soil-water deficits; format: in vivo, soybean (Glycine max)
Description: Plants were established in flow-through pots (Purcell et al., 1997) for nondestructive measurement of acetylene-reduction activity (ARA) as an indicator of relative nitrogenase activity. Pots were constructed of 10-cm-diameter, 40-cm-long polyvinyl chloride pipe, sealed at the bottom and top with end caps. Fittings were inserted into the bottom for drainage and introduction of air samples during ARA measurements, and into the top for air exhaust and sampling. Pot tare weights were recorded prior to adding potting mixture. Potting media and nutrients were the same as described in Examples 1-3. […] After allowing excess water to drain for 12 h, pot capacity weights were recorded. […]
ARA was measured beginning 28 DAE by introducing a 9:1 air to acetylene mixture at 0.5 L min^−1 into the bottom of the pots that were sealed around the plant root system. […] Ethylene concentration in the gas samples was quantified by gas chromatography using a flame ionization detector and a Porapak N column (de Silva et al., 1996). […] Ethylene concentrations were expressed as μmol C2H4 plant^−1h^−1, and means within an experiment and sample date were compared using standard errors. […]
Soil-water data were converted from pot capacity weight to fraction of the transpirable soil water (FTSW) (de Silva et al., 1996). […] Soil weight at zero transpirable water was determined to be 0.24 of the soil weight at pot capacity. […]

[2] = tested on: selected B. japonicum cultures (from USDA 110); test: Growth in Tulley's media with 5 mM glyphosate, colonies selected in Example 6 (Example 7); format: cell-based, Bradyrhizobium japonicum
Description: Duplicate cultures were evaluated from each of the original colony selections. […] The cultures were allowed to grow for 14 days, and then the OD of each culture was measured.

[3] = tested on: soybean cultivar DK5961RR; test: Greenhouse Example 3: response to glyphosate with and without available soil nitrogen; format: in vivo, soybean (Glycine max)
Description: Treatments were a factorial arrangement of two harvest dates, plus and minus soil nitrogen, and plus and minus glyphosate application. Experimental conditions were similar to those described for Examples 1 and 2, including timing of nutrient applications. […] Plants were harvested at 19 and 40 DAE as described previously. For the plus nitrogen treatment, plants harvested at 19 and 40 DAE received in the nutrient solution at total of 150 and 300 mg N as NO3^−1, respectively. The experiment was a randomized complete block with six replications and was repeated.

[4] = tested on: GR soybean cultivar Terral TV5866RR; test: Greenhouse Example 1: biomass, nitrogen content and nodules of TV5866RR after postemergence glyphosate; format: in vivo, soybean (Glycine max); settings: for Nodules per plant Run 1 / Individual nodule mass Run 2 / Nodules per plant Run 2 / Individual nodule mass Run 1: Harvest 2 (40 DAE)
Description: Seeds were planted in 15-cm pots with an approximate soil volume of 1.9 L. The potting medium was a nitrogen-free peat/vermiculite/perlite mixture (LB2, Sun Gro Horticulture Inc., 1830 Knob Hill, Garland, Tex. 75403). Soil was saturated with deionized (DI) water and then 500 mL of full-strength, nitrogen-free nutrient solution (de Silva et al., 1996) was added prior to planting. Pots were inoculated with approximately 1×10^7 cells of B. japonicum (USDA 110) at sowing. After emergence, plants were thinned to one per pot and reinoculated with B. japonicum. Plants were well watered by adding deionized (DI) water daily, and each pot received 250 mL of nitrogen-free nutrients weekly after emergence. Day and night temperatures were approximately 30 and 24 C, respectively, and natural illumination was supplemented with 1000 W metal-halide lamps for a day length of 16 h.
Each application was as a postemergence over-the-top spray to soybean plants using a moving-nozzle spray chamber. At each harvest, plants were separated into shoots, roots, and nodules. Nodules were photocopied, and total number of nodules per plant was determined from the photocopies. Plant sections were oven dried at 65 C for 48 h, weighed, and ground to pass a 1-mm sieve. Total nitrogen was determined for shoots and root plus nodule dry matter with a Leco FP-228 Determinator (Leco Corporation, St Joseph, Mich.) by the Agriculture Services Laboratory, University of Arkansas. The experiment consisted of six replications and was repeated. Seed for Run 1 and Run 2 of the experiment were planted on 25 February and 14 April, respectively. […] Treatment means were compared using Fisher's Protected least significant difference (LSD, P≦0.05).

[5] = DK5961RR, Harvest 1 (19 DAE), soil nitrogen no
[6] = DK5961RR, Harvest 1 (19 DAE), soil nitrogen yes
[7] = DK5961RR, Harvest 2 (40 DAE), averaged over soil nitrogen treatments
[8] = Harvest 1 (19 DAE), averaged across runs
[9] = TV5866RR, Harvest 1 (19 DAE), early treatment
[10] = TV5866RR, Harvest 1 (19 DAE), early treatment: foliar 1.68 kg ha^−1 at 5 and 12 DAE

O=C(O)CNCP(=O)(O)O [glyphosate, N-(phosphonomethyl)glycine]
Sensitivity of ARA to water deficits vs untreated plants ([1]; in vivo): more sensitive
Nitrogenase activity, % of the well-watered control ([1]; water-deficit plants at FTSW of 0.21, 1.68 kg ha^−1 on 5, 12, and 19 DAE): 71%
Growth, % of wild type USDA 110 in the absence of glyphosate ([2]; 45 selected colonies averaged, liquid culture, 14 days): 27%
OD600 ([2]; Selected cultures, averaged over all strains, after 14 days): 0.36 b^
Plant biomass or nitrogen content effect ([3]; DK5961RR, 19 DAE, without soil nitrogen): did not decrease
Biomass Root [3, 5]: 0.30b g plant^−1
Biomass Shoot [3, 5]: 0.63bc g plant^−1
Nitrogen Root [3, 5]: 7.53b mg plant^−1
Nitrogen Shoot [3, 5]: 22.2c mg plant^−1
Biomass Shoot [3, 6]: 0.58c g plant^−1
Nitrogen Root [3, 6]: 5.77c mg plant^−1
Nitrogen Shoot [3, 6]: 31.0b mg plant^−1
Biomass Root ([3]; DK5961RR, Harvest 1 (19 DAE), soil nitrogen yes, 1.68 kg ha^−1 5 and 12 DAE): 0.20c g plant^−1
Biomass Root [3, 7]: 0.48 g plant^−1
Biomass Shoot [3, 7]: 1.81 g plant^−1
Nitrogen Root [3, 7]: 11.1 mg plant^−1
Nitrogen Shoot [3, 7]: 70.7 mg plant^−1
Shoot nitrogen content decrease ([3]; Harvest 2 (40 DAE), averaged across soil nitrogen treatments): 13%
Number of nodules per plant vs untreated ([4]; Harvest 1 (19 DAE)): no difference
Nitrogen accumulation decrease in roots [4, 8]: 36%
Nitrogen accumulation decrease in shoots [4, 8]: 34%
Nodule mass effect ([4]; Harvest 1, Run 2, 19 DAE): not affected
Total nodule weight decrease ([4]; Harvest 1, Run 1): 34%
Nodules per plant Run 1 ([4]; Early treatment, Run 1): 138 number
Individual nodule mass Run 2 ([4]; Early treatment, Run 2): 1.70 mg nodule^−1
Nodules per plant Run 2 ([4]; Early treatment, Run 2): 256 number
Individual nodule mass Run 1 ([4]; Early: 1.68 kg ha^−1 on 5 and 12 DAE, Run 1): 2.73 mg nodule^−1
Nodules per plant Run 1 ([4]; Late treatment, Run 1): 150 number
Individual nodule mass Run 2 ([4]; Late treatment, Run 2): 2.00 mg nodule^−1
Nodules per plant Run 2 ([4]; Late treatment, Run 2): 209 number
Individual nodule mass Run 1 ([4]; Late: 1.68 kg ha^−1 on 18, 25, and 32 DAE, Run 1): 2.79 mg nodule^−1
Root biomass effect ([4]; TV5866RR, Harvest 1): not decreased
Shoot biomass decrease ([4]; TV5866RR, Harvest 1 (19 DAE)): 17%
Nitrogen Root [4, 9]: 4.2 mg plant^−1
Nitrogen Shoot [4, 9]: 8.9 mg plant^−1
Biomass Root [4, 10]: 0.17 g plant^−1
Biomass Shoot [4, 10]: 0.40 g plant^−1
Biomass Nodules Run 1 ([4]; TV5866RR, Harvest 1 (19 DAE), early treatment, Run 1): 0.043 g plant^−1
Biomass Nodules Run 2 ([4]; TV5866RR, Harvest 1 (19 DAE), early treatment, Run 2): 0.088 g plant^−1
Visual observation of plants ([4]; between 12 and 20 DAE): yellowed
Effect on plant mass, plant color, or plant N content ([4]; by 40 DAE in Run 2): no apparent effect
